Experimental data as given in US6737383B1, “Herbicidal oxadiazolidines” (priority 1999, dated 2004).

Assays:
pigweed = test: Test B pre/postemergence pigweed; assay type: in vivo, Amaranthus retroflexus
Procedure, shortened: (§1)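 Test chemicals in a non-phytotoxic solvent mixture with surfactant were sprayed preemergence onto planted seeds and postemergence onto plants 2 to 18 cm tall (1- to 4-leaf stage). After twelve to sixteen days in a greenhouse, injury was visually rated against untreated controls from 0 (no effect) to 10 (complete control).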

rape = test: Test B pre/postemergence rape; assay type: in vivo, Brassica napus
Procedure, shortened: as §1

purple nutsedge = test: Test B pre/postemergence purple nutsedge; assay type: in vivo, Cyperus rotundus
Procedure, shortened: as §1

corn = test: Test B pre/postemergence corn; assay type: in vivo, Zea mays
Procedure, shortened: as §1

duck salad = test: Test B flood test duck salad; assay type: in vivo, Heteranthera limosa
Procedure, shortened: (§2)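 Each value is a visual injury score relative to controls, with 10 meaning complete control and 0 no effect. Evaluation took place twelve to sixteen days after the 2-leaf-stage plants were treated and kept in the greenhouse.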

velvetleaf = test: Test B pre/postemergence velvetleaf; assay type: in vivo, Abutilon theophrasti
Procedure, shortened: as §1

sugar beet = test: Test B pre/postemergence sugar beet; assay type: in vivo, Beta vulgaris
Procedure, shortened: as §1

soybean = test: Test B pre/postemergence soybean; assay type: in vivo, Glycine max
Procedure, shortened: as §1

smallflower flatsedge = test: Test B flood test smallflower flatsedge; assay type: in vivo, Cyperus difformis
Procedure, shortened: as §2

morningglory = test: Test B pre/postemergence morningglory; assay type: in vivo, Ipomoea hederacea
Procedure, shortened: as §1

cocklebur = test: Test B pre/postemergence cocklebur; assay type: in vivo, Xanthium strumarium
Procedure, shortened: as §1

blackgrass = test: Test B pre/postemergence blackgrass; assay type: in vivo, Alopecurus myosuroides
Procedure, shortened: as §1

wheat = test: Test B pre/postemergence wheat; assay type: in vivo, Triticum aestivum
Procedure, shortened: as §1

crabgrass = test: Test B pre/postemergence crabgrass; assay type: in vivo, Digitaria sanguinalis
Procedure, shortened: as §1

bedstraw = test: Test B pre/postemergence bedstraw; assay type: in vivo, Galium aparine
Procedure, shortened: as §1

wild oat = test: Test B pre/postemergence wild oat; assay type: in vivo, Avena fatua
Procedure, shortened: as §1

bamyardgrass = test: Test B flood test barnyardgrass; assay type: in vivo, Echinochloa crus-galli
Procedure, shortened: as §2

rice = test: Test B flood test rice; assay type: in vivo, Oryza sativa
Procedure, shortened: as §2

giant foxtail = test: Test B pre/postemergence giant foxtail; assay type: in vivo, Setaria faberii
Procedure, shortened: as §1

surinam grass = test: Test B pre/postemergence surinam grass; assay type: in vivo, Brachiaria decumbens
Procedure, shortened: as §1

[1] = Postemergence, Rate 125 g/ha, scale of 0 to 10 where 0 is no effect and 10 is complete control
[2] = Postemergence, Rate 250 g/ha, scale of 0 to 10, 0 is no effect, 10 is complete control
[3] = Postemergence, Rate 500 g/ha, scale of 0 to 10 where 0 is no effect and 10 is complete control
[4] = Preemergence, Rate 62 g/ha, scale 0 to 10 (0 no effect, 10 complete control)
[5] = Preemergence, Rate 125 g/ha, scale of 0 to 10 where 0 is no effect and 10 is complete control
[6] = Preemergence, Rate 500 g/ha, scale of 0 to 10 where 0 is no effect and 10 is complete control
[7] = Postemergence, Rate 62 g/ha, scale of 0 to 10, 0 is no effect, 10 is complete control
[8] = Rate 62 g/ha, flood test species, Pre-emergence, visual evaluation after twelve to sixteen days
[9] = Rate 125 g/ha, under heading Pre-emergence, flood test species, visual evaluation after twelve to sixteen days
[10] = Rate 250 g/ha, Pre-emergence (flood test species), scale 0 to 10, 0 is no effect, 10 is complete control
[11] = Rate 500 g/ha, Pre-emergence section of Table B, 0 to 10 scale (0 no effect, 10 complete control)

CC(C)N(C(=O)n1oc(=O)n(CC(=O)C(F)(F)F)c1=O)c1ccc(F)cc1F [Compound 598]
0: Plant response rating, Redroot pigweed (pigweed; [1]) | Redroot pigweed plant response rating (pigweed; [2]) | Plant response rating, Redroot pigweed (pigweed; [3]) | Redroot pigweed plant response rating (pigweed; [4]) | Redroot pigweed plant response rating (pigweed; [5]) | Plant response rating, Redroot pigweed (pigweed; [6]) | Rape plant response rating (rape; [7]) | Plant response rating, Rape (rape; [1]) | Rape plant response rating (rape; [2]) | Plant response rating, Rape (rape; [3]) | Rape plant response rating (rape; [4]) | Rape plant response rating (rape; [5]) | Plant response rating, Rape (rape; [6]) | Nutsedge plant response rating (purple nutsedge; [7]) | Plant response rating, Nutsedge (purple nutsedge; [1]) | Nutsedge plant response rating (purple nutsedge; [2]) | Plant response rating, Nutsedge (purple nutsedge; [3]) | Nutsedge plant response rating (purple nutsedge; [4]) | Nutsedge plant response rating (purple nutsedge; [5]) | Plant response rating, Nutsedge (purple nutsedge; [6]) | Corn plant response rating (corn; [7]) | Plant response rating, Corn (corn; [1]) | Corn plant response rating (corn; [2]) | Plant response rating, Corn (corn; [3]) | Corn plant response rating (corn; [4]) | Corn plant response rating (corn; [5]) | Corn plant response rating (0 to 10 scale) (corn; Preemergence, Rate 250 g/ha) | Plant response rating, Corn (corn; [6]) | Plant response rating, Ducksalad (0 to 10 scale, 0 is no effect, 10 is complete control) (duck salad; [8]) | Ducksalad plant response rating (0 to 10 scale, 0 is no effect, 10 is complete control) (duck salad; [9]) | Ducksalad plant response rating (duck salad; [10]) | Ducksalad plant response rating (duck salad; [11]) | Plant response rating, Velvetleaf (velvetleaf; [1]) | Velvetleaf plant response rating (velvetleaf; [2]) | Plant response rating, Velvetleaf (velvetleaf; [3]) | Velvetleaf plant response rating (velvetleaf; [4]) | Velvetleaf plant response rating (velvetleaf; [5]) | Plant response rating, Velvetleaf (velvetleaf; [6]) | Plant response rating, Sugarbeets (sugar beet; [1]) | Sugarbeets plant response rating (sugar beet; [2]) | Plant response rating, Sugarbeets (sugar beet; [3]) | Sugarbeets plant response rating (sugar beet; [4]) | Sugarbeets plant response rating (sugar beet; [5]) | Plant response rating, Sugarbeets (sugar beet; [6]) | Plant response rating, Soybean (soybean; [1]) | Soybean plant response rating (soybean; [2]) | Plant response rating, Soybean (soybean; [3]) | Soybean plant response rating (soybean; [4]) | Soybean plant response rating (soybean; [5]) | Plant response rating, Soybean (soybean; [6]) | Plant response rating, S. Flatsedge (0 to 10 scale, 0 is no effect, 10 is complete control) (smallflower flatsedge; [8]) | S. Flatsedge plant response rating (0 to 10 scale, 0 is no effect, 10 is complete control) (smallflower flatsedge; [9]) | S. Flatsedge plant response rating (smallflower flatsedge; [10]) | S. Flatsedge plant response rating (smallflower flatsedge; [11]) | Morningglory plant response rating (morningglory; [7]) | Plant response rating, Morningglory (morningglory; [1]) | Morningglory plant response rating (morningglory; [2]) | Plant response rating, Morningglory (morningglory; [3]) | Morningglory plant response rating (morningglory; [4]) | Morningglory plant response rating (morningglory; [5]) | Plant response rating, Morningglory (morningglory; [6]) | Cocklebur plant response rating (cocklebur; [7]) | Plant response rating, Cocklebur (cocklebur; [1]) | Cocklebur plant response rating (cocklebur; [2]) | Plant response rating, Cocklebur (cocklebur; [3]) | Cocklebur plant response rating (cocklebur; [4]) | Cocklebur plant response rating (cocklebur; [5]) | Cocklebur plant response rating (0 to 10 scale) (cocklebur; Preemergence, Rate 250 g/ha) | Plant response rating, Cocklebur (cocklebur; [6]) | Blackgrass plant response rating (blackgrass; [7]) | Plant response rating, Blackgrass (blackgrass; [1]) | Blackgrass plant response rating (blackgrass; [2]) | Plant response rating, Blackgrass (blackgrass; [3]) | Blackgrass plant response rating (blackgrass; [4]) | Blackgrass plant response rating (blackgrass; [5]) | Blackgrass plant response rating (0 to 10 scale) (blackgrass; Preemergence, Rate 250 g/ha) | Blackgrass plant response rating (blackgrass; [6]) | Plant response rating, Wheat (wheat; [1]) | Wheat plant response rating (wheat; [2]) | Plant response rating, Wheat (wheat; [3]) | Wheat plant response rating (wheat; [4]) | Wheat plant response rating (wheat; [5]) | Plant response rating, Wheat (wheat; [6]) | Crabgrass plant response rating (crabgrass; [7]) | Plant response rating, Crabgrass (crabgrass; [1]) | Crabgrass plant response rating (crabgrass; [2]) | Plant response rating, Crabgrass (crabgrass; [3]) | Crabgrass plant response rating (crabgrass; [4]) | Crabgrass plant response rating (crabgrass; [5]) | Plant response rating, Crabgrass (crabgrass; [6]) | Bedstraw plant response rating (bedstraw; [7]) | Plant response rating, Bedstraw (bedstraw; [1]) | Bedstraw plant response rating (bedstraw; [4]) | Bedstraw plant response rating (bedstraw; [5]) | Bedstraw plant response rating (0 to 10 scale) (bedstraw; Preemergence, Rate 250 g/ha) | Bedstraw plant response rating (bedstraw; [6]) | Plant response rating, Wild oats (wild oat; [1]) | Wild oats plant response rating (wild oat; [2]) | Plant response rating, Wild oats (wild oat; [3]) | Wild oats plant response rating (wild oat; [4]) | Wild oats plant response rating (wild oat; [5]) | Plant response rating, Wild oats (wild oat; [6]) | Plant response rating, Barnyardgrass (0 to 10 scale, 0 is no effect, 10 is complete control) (bamyardgrass; [8]) | Barnyardgrass plant response rating (0 to 10 scale, 0 is no effect, 10 is complete control) (bamyardgrass; [9]) | Barnyardgrass plant response rating (bamyardgrass; [10]) | Barnyardgrass plant response rating (bamyardgrass; [11]) | Plant response rating, Rice (0 to 10 scale, 0 is no effect, 10 is complete control) (rice; [8]) | Rice plant response rating (0 to 10 scale, 0 is no effect, 10 is complete control) (rice; [9]) | Rice plant response rating (rice; [10]) | Rice plant response rating (rice; [11]) | Giant foxtail plant response rating (giant foxtail; [7]) | Plant response rating, Giant foxtail (giant foxtail; [1]) | Giant foxtail plant response rating (giant foxtail; [2]) | Plant response rating, Giant foxtail (giant foxtail; [3]) | Giant foxtail plant response rating (giant foxtail; [4]) | Giant foxtail plant response rating (giant foxtail; [5]) | Plant response rating, Giant foxtail (giant foxtail; [6]) | B. signalgrass plant response rating (surinam grass; [7]) | Plant response rating, B. signalgrass (surinam grass; [1]) | B. signalgrass plant response rating (surinam grass; [2]) | Plant response rating, B. signalgrass (surinam grass; [3]) | B. signalgrass plant response rating (surinam grass; [4]) | B. signalgrass plant response rating (surinam grass; [5]) | B. signalgrass plant response rating (0 to 10 scale, 0 is no effect, 10 is complete control) (surinam grass; Preemergence, Rate 250 g/ha) | B. signalgrass plant response rating (surinam grass; [6])
